Measured values: ChEMBL document CHEMBL3877316, “Synthesis of pharmacologically important naphthoquinones and anticancer activity of 2-benzyllawsone through DNA topoisomerase-II inhibition” (Bioorg Med Chem, 2017)
Calls of active or inactive are those of the source. No cut-off for these calls is given here.

Legend:
[1] = Antiproliferative activity against human DLD1 cells after 48 hrs by SRB assay; format: functional, cell-based; conditions: DLD-1, 48 h
Mus musculus [2] = assay: Acute toxicity in Swiss albino mouse assessed as serum SGOT level at 50 mg/kg, po qd administered as single dose for 7 days (reference value: 34.32 +/- 3.78 U/L); format: organism-based; conditions: in vivo, 168 h
[3] = Antiproliferative activity against human MCF7 cells after 48 hrs by SRB assay; format: functional, cell-based; conditions: MCF7, 48 h
[4] = Cell cycle arrest in human FADU cells assessed as accumulation at S phase at 2.5 to 10 uM by propidium iodide staining based flow cytometry; format: functional
FaDu [5] = assay: Induction of apoptosis in human FADU cells at 10 uM by propidium iodide staining based flow cytometry; format: functional, cell-based
FaDu [6] = assay: Induction of apoptosis in human FADU cells assessed as increase in PARP cleavage at 5 to 10 uM by Western blot method; format: functional, cell-based
Mus musculus [7] = assay: Acute toxicity in Swiss albino mouse assessed as mortality up to 1000 mg/kg, po qd administered as single dose for 7 days; format: organism-based; conditions: in vivo, 168 h
Mus musculus [8] = assay: Acute toxicity in Swiss albino mouse assessed as changes in relative weight of lungs up to 1000 mg/kg, po qd administered as single dose for 7 days; format: organism-based; conditions: in vivo, 168 h
Mus musculus [9] = assay: Acute toxicity in Swiss albino mouse assessed as changes in relative weight of kidney up to 1000 mg/kg, po qd administered as single dose for 7 days; format: organism-based; conditions: in vivo, 168 h
Mus musculus [10] = assay: Acute toxicity in Swiss albino mouse assessed as changes in absolute weight of spleen up to 1000 mg/kg, po qd administered as single dose for 7 days; format: organism-based; conditions: in vivo, 168 h
Mus musculus [11] = assay: Acute toxicity in Swiss albino mouse assessed as changes in relative weight of spleen up to 1000 mg/kg, po qd administered as single dose for 7 days; format: organism-based; conditions: in vivo, 168 h
Mus musculus [12] = assay: Acute toxicity in Swiss albino mouse assessed as changes in relative weight of heart up to 1000 mg/kg, po qd administered as single dose for 7 days; format: organism-based; conditions: in vivo, 168 h
Mus musculus [13] = assay: Acute toxicity in Swiss albino mouse assessed as body weight at 5 mg/kg, po qd administered as single dose for 7 days (reference value: 27.73 +/- 0.94 g); format: organism-based; conditions: in vivo, 168 h
Mus musculus [14] = assay: Acute toxicity in Swiss albino mouse assessed as body weight at 50 mg/kg, po qd administered as single dose for 7 days (reference value: 27.73 +/- 0.94 g); format: organism-based; conditions: in vivo, 168 h
Mus musculus [15] = assay: Acute toxicity in Swiss albino mouse assessed as body weight at 300 mg/kg, po qd administered as single dose for 7 days (reference value: 27.73 +/- 0.94 g); format: organism-based; conditions: in vivo, 168 h
Mus musculus [16] = assay: Acute toxicity in Swiss albino mouse assessed as body weight at 1000 mg/kg, po qd administered as single dose for 7 days (reference value: 27.73 +/- 0.94 g); format: organism-based; conditions: in vivo, 168 h
Mus musculus [17] = assay: Acute toxicity in Swiss albino mouse assessed as serum RBC level at 5 mg/kg, po qd administered as single dose for 7 days (reference value: 9.07 +/- 1.13 million/mm3); format: organism-based; conditions: in vivo, 168 h
Mus musculus [18] = assay: Acute toxicity in Swiss albino mouse assessed as serum RBC level at 300 mg/kg, po qd administered as single dose for 7 days (reference value: 9.07 +/- 1.13 million/mm3); format: organism-based; conditions: in vivo, 168 h
Mus musculus [19] = assay: Acute toxicity in Swiss albino mouse assessed as serum RBC level at 1000 mg/kg, po qd administered as single dose for 7 days (reference value: 9.07 +/- 1.13 million/mm3); format: organism-based; conditions: in vivo, 168 h
Mus musculus [20] = assay: Acute toxicity in Swiss albino mouse assessed as serum WBC level at 300 mg/kg, po qd administered as single dose for 7 days (reference value: 8.64 +/- 0.42 10^3/mm3); format: organism-based; conditions: in vivo, 168 h
Mus musculus [21] = assay: Acute toxicity in Swiss albino mouse assessed as serum ALP level at 50 mg/kg, po qd administered as single dose for 7 days (reference value: 292.13 +/- 40.29 U/L); format: organism-based; conditions: in vivo, 168 h
Mus musculus [22] = assay: Acute toxicity in Swiss albino mouse assessed as serum ALP level at 1000 mg/kg, po qd administered as single dose for 7 days (reference value: 292.13 +/- 40.29 U/L); format: organism-based; conditions: in vivo, 168 h
Mus musculus [23] = assay: Acute toxicity in Swiss albino mouse assessed as serum SGOT level at 300 mg/kg, po qd administered as single dose for 7 days (reference value: 34.32 +/- 3.78 U/L); format: organism-based; conditions: in vivo, 168 h
Mus musculus [24] = assay: Acute toxicity in Swiss albino mouse assessed as serum SGPT level at 5 mg/kg, po qd administered as single dose for 7 days (reference value: 23.06 +/- 1.92 U/L); format: organism-based; conditions: in vivo, 168 h
Mus musculus [25] = assay: Acute toxicity in Swiss albino mouse assessed as serum SGPT level at 1000 mg/kg, po qd administered as single dose for 7 days (reference value: 23.06 +/- 1.92 U/L); format: organism-based; conditions: in vivo, 168 h
Mus musculus [26] = assay: Acute toxicity in Swiss albino mouse assessed as serum albumin level at 1000 mg/kg, po qd administered as single dose for 7 days (reference value: 2.49 +/- 0.17 g/dl); format: organism-based; conditions: in vivo, 168 h
Mus musculus [27] = assay: Acute toxicity in Swiss albino mouse assessed as serum creatinine level at 50 mg/kg, po qd administered as single dose for 7 days (reference value: 0.09 +/- 0.01 mg/dl); format: organism-based; conditions: in vivo, 168 h
Mus musculus [28] = assay: Acute toxicity in Swiss albino mouse assessed as serum creatinine level at 1000 mg/kg, po qd administered as single dose for 7 days (reference value: 0.09 +/- 0.01 mg/dl); format: organism-based; conditions: in vivo, 168 h
Mus musculus [29] = assay: Acute toxicity in Swiss albino mouse assessed as serum triglycerides level at 5 mg/kg, po qd administered as single dose for 7 days (reference value: 107.9 +/- 10.7 mg/dl); format: organism-based; conditions: in vivo, 168 h
Mus musculus [30] = assay: Acute toxicity in Swiss albino mouse assessed as serum triglycerides level at 1000 mg/kg, po qd administered as single dose for 7 days (reference value: 107.9 +/- 10.7 mg/dl); format: organism-based; conditions: in vivo, 168 h
Mus musculus [31] = assay: Acute toxicity in Swiss albino mouse assessed as serum protein level at 300 mg/kg, po qd administered as single dose for 7 days (reference value: 2.91 +/- 0.31 mg/ml); format: organism-based; conditions: in vivo, 168 h
Mus musculus [32] = assay: Acute toxicity in Swiss albino mouse assessed as serum cholesterol level at 5 mg/kg, po qd administered as single dose for 7 days (reference value: 68.37 +/- 4.42 mg/dl); format: organism-based; conditions: in vivo, 168 h
Mus musculus [33] = assay: Acute toxicity in Swiss albino mouse assessed as serum cholesterol level at 50 mg/kg, po qd administered as single dose for 7 days (reference value: 68.37 +/- 4.42 mg/dl); format: organism-based; conditions: in vivo, 168 h
Mus musculus [34] = assay: Acute toxicity in Swiss albino mouse assessed as serum cholesterol level at 300 mg/kg, po qd administered as single dose for 7 days (reference value: 68.37 +/- 4.42 mg/dl); format: organism-based; conditions: in vivo, 168 h
Mus musculus [35] = assay: Acute toxicity in Swiss albino mouse assessed as effect on neutrophil count up to 1000 mg/kg, po qd administered as single dose for 7 days; format: organism-based; conditions: in vivo, 168 h
Mus musculus [36] = assay: Acute toxicity in Swiss albino mouse assessed as effect on basophil count up to 1000 mg/kg, po qd administered as single dose for 7 days; format: organism-based; conditions: in vivo, 168 h

Question: For `O=C1C=C(OCc2ccccc2)C(=O)c2ccccc21`, which IC50 [1] is on record?
Answer: 16.2 µM

Question: What about the Activity (Mus musculus [2]) of the same molecule?
Answer: 30.19 U/L

Question: What about the IC50 [3] of the same molecule?
Answer: 13.9 µM

Question: What about the Activity [4] of the same molecule?
Answer: Active

Question: And the Activity (FaDu [5])?
Answer: Active

Question: And the Activity (FaDu [6])?
Answer: Active

Question: What about the Activity (Mus musculus [7]) of the same molecule?
Answer: Non-Toxic

Question: What about the Activity (Mus musculus [8]) of the same molecule?
Answer: Non-Toxic

Question: What about the Activity (Mus musculus [9]) of the same molecule?
Answer: Non-Toxic

Question: What about the Activity (Mus musculus [10]) of the same molecule?
Answer: Non-Toxic

Question: And the Activity (Mus musculus [11])?
Answer: Non-Toxic

Question: And the Activity (Mus musculus [12])?
Answer: Non-Toxic

Question: What about the Activity (Mus musculus [13]) of the same molecule?
Answer: 26.34 g

Question: And the Activity (Mus musculus [14])?
Answer: 26.76 g

Question: What about the Activity (Mus musculus [15]) of the same molecule?
Answer: 27.09 g

Question: What about the Activity (Mus musculus [16]) of the same molecule?
Answer: 26.48 g

Question: What about the Activity (Mus musculus [17]) of the same molecule?
Answer: 8.67 million/mm3

Question: And the Activity (Mus musculus [18])?
Answer: 9.59 million/mm3

Question: What about the Activity (Mus musculus [19]) of the same molecule?
Answer: 8.89 million/mm3

Question: And the Activity (Mus musculus [20])?
Answer: 8.52 ×10³ /mm3

Question: What about the Activity (Mus musculus [21]) of the same molecule?
Answer: 304.24 U/L

Question: And the Activity (Mus musculus [22])?
Answer: 385.91 U/L

Question: What about the Activity (Mus musculus [23]) of the same molecule?
Answer: 33.87 U/L

Question: And the Activity (Mus musculus [24])?
Answer: 19.16 U/L

Question: What about the Activity (Mus musculus [25]) of the same molecule?
Answer: 25 U/L

Question: And the Activity (Mus musculus [26])?
Answer: 2.88 g/dL

Question: And the Activity (Mus musculus [27])?
Answer: 0.16 mg/dL

Question: And the Activity (Mus musculus [28])?
Answer: 0.16 mg/dL

Question: What about the Activity (Mus musculus [29]) of the same molecule?
Answer: 130.9 mg/dL

Question: What about the Activity (Mus musculus [30]) of the same molecule?
Answer: 127.4 mg/dL

Question: And the Activity (Mus musculus [31])?
Answer: 2.43 mg/mL

Question: What about the Activity (Mus musculus [32]) of the same molecule?
Answer: 65.28 mg/dL

Question: And the Activity (Mus musculus [33])?
Answer: 65.13 mg/dL

Question: And the Activity (Mus musculus [34])?
Answer: 45.62 mg/dL

Question: And the Activity (Mus musculus [35])?
Answer: Non-Toxic

Question: What about the Activity (Mus musculus [36]) of the same molecule?
Answer: Non-Toxic
